Assay results reported in US10206905B2, “Use of composition for preparing a medicament for treatment of amyotrophic lateral sclerosis” (priority 2015, dated 2019).
Marks after values point to notes of the source that are not given here.

How the values were obtained:
[1] = system: SOD1-G93A mice; assay: Rota-rod motor function of SOD1-G93A mice (Example 1); format: in vivo; conditions: p<0.05, FIG. 1
Method: According to the methods reported in literatures, mice were placed on the Rota-rod (60 Hz/min, Φ190 mm), and the time from being placed on the Rota-rod to dropping was recorded. Each mouse was determined for 3 times at each time point, with the longest time of mouse keeping on the rotating rod reflecting the motor function of the mouse, the determination was stopped if the time was over 180s, calculated as 180s. The motor functions of the mice with SOD1 mutant gene were determined beginning at the age of 60 d. Thereafter, they were observed and determined every 10 days, until death.
(§1) Calculated based on the effective doses of edaravone (SOD1-G93Amousel5 mg/kg, SOD1-H46R rat 3-6mg/kg) and those on cerebral ischemic animal models (SD rat 6 mg/kg) according to the literature, the dosage of edaravone was set at 12 mg/kg, then the dosage of the composition of edaravone and borneol was set at 15 mg/kg (the dosage of edaravone was set at 12 mg/kg, borneol was 3 mg/kg), and borneol was set at 3 mg/kg.
SOD1 genetic mutant mice at the age of 70 d were divided randomly into 4 groups according to their motor functions. […]

[2] = system: SOD1-G93A mice; assay: Onset time and survival time of SOD1-G93A mice (Example 1); format: in vivo; conditions: for Survival Time Extension: i.p. once a day from age 70 d, versus SOD1-G93A control; for Onset Time / Survival Time: i.p. once a day from age 70 d until death
Text: (§2) The transgenic mice (B6SJL-TgN[SOD1-G93A] 1Gur) carrying humanized copper/zinc superoxide dismutase (SOD1) (G93A mutants) and wild-type B6SJL F1 mice are purchased from Nanjing University. The breed conversation and propagation methods of the mice: one wild-type female mouse and one transgenic male mouse are allowed to mate with each other, with their progeny identified through polymerase chain reaction (PCR) with DNA extracted from the tail of young mice.
5 B6SJL-TgN(SOD1-G93A)1Gur male mice were allowed to mate with B6SJLF1 female healthy mice in a ratio of 1 male to 3 females beginning at the age of 60 d. DNA was extracted from the progeny mice tail-cutting (as required in the kits), plus SOD1 primers 5′ -[…]-3 ′ and 5 ′ -[…] AAGTGA-3 ′ were amplified through 30 PCR cycles, confirming SOD1 gene strips between 200˜300bp. Mice without SOD1 mutant gene were eliminated.
as §1
(§3) SOD1 genetic mutant mice at the age of 70 d were divided randomly into 4 groups according to their motor functions. Respectively: the SOD1 genetic mutation control group; the treating group of the composition of edaravone and borneol at 15 mg/kg; the treating group of edaravone at 12 mg/kg; the treating group of borneol at 3 mg/kg; another B6SJL healthy mice control group without SOD lgenetic mutation was additionally set. There was 14 mice each group, half of males and half of females.
From the day of grouping, animals in each group were dosed by intraperitoneal injection once a day, until death. Animals in the healthy control group and the SOD1 genetic mutation control group were given saline of equal volumes.
It was determined as muscle strength decline when the time of the mice keeping on the rotarod decreased by over 30% compared with the former time determined. The onset time of the mice was determined according to the variation of this motor function and the observation of the anterior limbs of the mice with or without tremor. When the mice have lain on their backs on smooth planes for 30 s and cannot righting reflex, or there was serious infection in one or both eyes, then the mice may be judged as death and sacrificed. The time from birth to death of a mouse was the survival time of the mouse.
It was assessed whether there was a synergistic effect between edaravone and borneol in the composition according to the Jong-eun's formula, q=E(a+b)/(Ea+Eb−Ea×Eb). In the formula, E(a+b) is the effective rate of the combined drugs, Ea, Eb is the effective rate of A drug, B drug used alone, respectively. If q value was in the range of 0.85˜1.15, indicating the sum of the combined two drugs; q value >1.15 indicating enhancement, and q value <0.85 indicating there was an antagonistic effect when two drugs were used together.

[3] = system: SOD1-G93A mice; assay: Passive avoidance test of learning and memory in SOD1-G93A mice (Example 2); format: in vivo; conditions: memory experiment; for Latency period after entering the dark room versus model group: age about 90 d, FIG. 2; for Number of step-through errors versus model group: FIG. 3
Text: as §2, with “(G93A mutants)and” for “(G93A mutants) and”, “mouse were” for “mouse are”
as §1, with “(SOD1-G93Amouse 15” for “(SOD1-G93Amousel5”, “3-6 mg/kg)” for “3-6mg/kg)”
as §3, with “SOD1 genetic” for “SOD lgenetic”
From the day of grouping, animals in each group were dosed by intraperitoneal injection once a day, until the behavior test has been completed. Animals in the healthy control group and the SOD1 genetic mutation control group were given saline of equal volumes.
The passive avoidance test was performed when the animals were at the age of about 90 d to determine their abilities of learning and memory. The experimental device was divided into two rooms, bright and dark. […] The mice were placed into the bright room with face back to the hole in the test, the timer was initiated at the same time, and the animals entered the dark room through passing the hole, subjecting to the electric shock (0.19 mA), the recorded time was the latency period, meanwhile recording the number of step-through errors in 5 min after the mice got into the dark room. The memory experiment was carried out on the third day, the time from placing each mouse into the bright room to entering the dark room was recorded, if the mouse didn't enter the dark room in 5 min, then the latency period was recorded as 300s, meanwhile recording the number of step-through errors in 5 min after the mice got into the dark room.
It was assessed whether there was a synergistic effect between edaravone and borneol in the composition according to the Jong-eun's formula, q=E(a+b)/(Ea+Eb−Ea×Eb). […]

[4] = system: amyotrophic lateral sclerosis; conditions: clinical phase-III study NCT00330681; primary endpoint not reached; cited from earlier work
[5] = system: mutant SOD1 G93A mice; conditions: cited from earlier work
[6] = system: SOD1-G93A mice; assay: Onset time and survival time of SOD1-G93A mice (Example 3); format: in vivo
Method: The transgenic mice with amyotrophic lateral sclerosis (B 6 SJL-Tg(SOD1*G93A)1Gur/JNj u, hereinafter referred to as SOD1-G93 A mice) and the wild-type control mice were purchased from Nanjing Biomedical Research Institute of Nanjing University.
Dosing to animals was initiated from the age of 10 weeks, keeping on the whole survival period. Each dosage of the composition and the positive drug edaravone group was dosed by intraperitoneal injection once a day. […] Animals in the wild control group and the model group were given the corresponding volumes of solvents by intraperitoneal injection.
From the age of 10 weeks, the body weight, the motor function (motor ability score, rotarod test) of animals had been monitored once a week. Two consecutive rod droppings in the animal rotarod test had been considered as the sign of the onset of animal diseases. It was defined as the end of a disease to euthanasia when the animal cannot get righting in 30 seconds after being laid on one side.
The body weight, the motor ability score, the variation of the rod drop latency period with the time in the rotarod test, the onset time, and the survival time were considered as the indexes of observing the disease progress.

[7] = system: cerebral ischemic animal models; conditions: SD rat, according to the literature; cited from earlier work
[8] = system: SOD1-G93A mice; assay: Rotarod test drop time of SOD1-G93A mice (Example 3); format: in vivo; conditions: p<0.05, FIG. 6
[9] = system: SOD1-G93A mice; assay: Motor function scores of SOD1-G93A mice (Example 3); format: in vivo; conditions: p<0.05, FIG. 5
[10] = system: SOD1-H46R rat; conditions: according to the literature; cited from earlier work
[11] = system: SOD1-G93A mice; assay: Body weight of SOD1-G93A mice (Example 3); format: in vivo; conditions: 100 μg/ml in drinking water; age 21 weeks; p<0.05; FIG. 4
[12] = 15 mg/kg/d i.p. once a day from age 10 weeks, mean ± standard error
[13] = 100 μg/ml in drinking water, age 16-21 weeks

CC1(C)C2CCC1(C)C(O)C2 (stereo not shown) [Borneol, 2-camphol]
Rotarod time versus model group ([1]; 3 mg/kg/d i.p., only at age 130 d): different significantly from the model group
Effect on the survival time versus model group ([2]; 3 mg/kg/d i.p. from age 70 d): no statistical difference compared with the model group
Survival Time Extension ([2]; 3 mg/kg/d): 2.9 days
Onset Time ([2]; 3 mg/kg/d): 113.1 ± 2.5 days
Survival Time ([2]; 3 mg/kg/d): 141.3 ± 3.6 days
Survival Time ([2]; 3 mg/kg/d, listed as borneol): 141.3 ± 3.6 days
Latency period after entering the dark room versus model group ([3]; 3 mg/kg/d i.p. from 70 d): not obvious
Number of step-through errors versus model group ([3]; 3 mg/kg/d i.p.): not obvious

CC1=NN(c2ccccc2)C(=O)C1 [Edaravone, 3-methyl-1-phenyl-2-pyrazolin-5-one]
Rotarod time (muscle strength, motor function) versus model control group ([1]; 12 mg/kg/d i.p., age 110, 120, 130 d): significantly slow the decline of the muscle strength
ALSFRS-R score versus placebo group [4]: decreased less than the placebo group, there was no significant difference
Progression of the symptoms and degeneration of neuron ([5]; Exp Neurol. 2008, 213(2):448-55): capable of slowing the progression of the symptoms
Effective dose ([5]; SOD1-G93A mouse, according to the literature): 15 mg/kg
Onset Time [6, 12]: 111.3 ± 10.0 days
Survival Time [6, 12]: 151.7 ± 9.7* d
Survival Time Extension ([6]; 15 mg/kg/d i.p., versus SOD1-G93A control): 9.4 days
Effective dose [7]: 6 mg/kg
Effect on the survival time versus model group ([2]; 12 mg/kg/d i.p. from age 70 d): extending the survival time of the mice significantly
Influence on the onset time of the mice ([2]; 12 mg/kg/d i.p. from age 70 d): no influence on the onset time
Survival Time Extension ([2]; 12 mg/kg/d): 6.2 days
Onset Time ([2]; 12 mg/kg/d): 113.7 ± 2.6 days
Survival Time ([2]; 12 mg/kg/d): 144.6 ± 3.7 days
Survival Time ([2]; 12 mg/kg/d, listed as edaravone): 144.6 ± 3.7 days
Latency period after entering the dark room versus model group ([3]; 12 mg/kg/d i.p. from 70 d, p<0.05): extended significantly
Number of step-through errors versus model group ([3]; 12 mg/kg/d i.p., p<0.05): decreased significantly
Drop time in the rotarod test versus model group ([8]; 15 mg/kg/d i.p., age 16, 19, 20, 21 weeks): markedly longer than in the model group
Motor function scores versus model group ([9]; 15 mg/kg/d i.p., age 17, 20, 21 weeks): significantly higher than in the model group
Effective dose [10]: 3 to 6 mg/kg

Nc1nc2ccc(OC(F)(F)F)cc2s1 [Riluzole]
Onset Time ([6]; 100 μg/ml in drinking water from age 10 weeks, mean ± standard error): 109.2 ± 9.4 days
Weight of animals versus model control group [11]: significantly higher than in the model control group
Drop time in the rotarod test versus model group [8, 13]: longer than in the model group markedly
Motor function scores versus model group [9, 13]: significantly higher than in the model group
